This is an account of results in US7176219B2, “Salts of quinuclidine derivative” (priority 2005, dated 2007).

A word on the IC50: it is the concentration at which inhibition is half-maximal. A word on the Ki: it is a dissociation constant, usually derived from enzyme kinetics or from competition with a known ligand.

Read-outs that look alike come from different tables or passages of the source. Where only a bound is given, the exact number is not on record here.

Data set [1] is described as follows: Evaluation of hygroscopicity (dynamic steam adsorption, weight change). The data set is classed as physicochemical. The note with it: 25° C., within the range 5–95% relative humidity. As to the method:
A sample (about 5 mg) was placed in a purpose-made quartz holder, and the sample weight at the respective humidity was continuously measured and recorded in the following conditions. The apparatus including data processing was operated according to the method and procedure directed in each device. (Apparatus: dynamic steam adsorption measuring apparatus DVS Advantage, made by SMS)

A short description of data set [2]: Evaluation of stability (1): forced degradation test, impurities by LC. Conditions: for Change from Impurity Amt. before Storage (%), Condition 3 / Change from Impurity Amt. before Storage (%), Condition 2: 25° C., 5 days; for Change from Impurity Amt. before Storage (%), Condition 3: NUV (near ultraviolet ray) irradiated; for Change from Impurity Amt. before Storage (%), Condition 3 / Change from Impurity Amt. before Storage (%), Condition 1: tightly closed; for Change from Impurity Amt. before Storage (%), Condition 2: relative humidity 93%, open; for Change from Impurity Amt. before Storage (%), Condition 1: 120° C., 24 hours. As to the method:
A sample after storage was dissolved in 1 mL of MeOH and used as a sample solution. The sample solution was diluted 100 times with MeOH and used as a standard solution. Impurities contained in the sample solution was quantitatively analyzed using the standard solution. In this determination, the apparatus including data processing was operated according to the method and procedure directed in each device. (Apparatus: LC-MSD 1100 series, made by Agilent)

The nature of data set [3]: Evaluation of stability (2): stress testing, impurities by LC, UV at 210 nm. The data set is classed as physicochemical. As to the method: A sample (about 5 mg) was weighed in a glass mess-flask of 10 mL and applied to a stress testing in the following storage conditions. • Condition 1: 5° C.—shading—tightly closed • Condition 2: 40° C.—relative humidity 75%—open • Condition 3: 60° C.—shading—tightly closed • Condition 4: 80° C.—shading—tightly closed • Condition 5: 25° C.—D65 (1000 lux)—tightly closed
Chemical stability: After storage, MeOH was placed in the mess-flask containing the sample up to the level of the marked line, and the resulting solution was used as a sample solution. The sample solution was diluted 100 times with MeOH to prepare a standard solution, which was used in determination of impurities contained in the sample solution. Detection of the impurities was performed by means of UV at 210 nm. […] (Apparatus: LC-MSD 1100 series, made by Agilent)

In the next data set the target is T1, muscarinic M3 receptors (Cavia porcellus, UniProt H0W1Z3).
T1 construct: Smooth muscle cells were isolated from guinea pig bladders; from tissue; host or cells: smooth muscle cells freshly isolated from guinea pig bladder
The experiment in a line: Functional affinity estimate for muscarinic M3 receptors in bladders (carbachol-induced intracellular Ca2+ change in bladder smooth muscle cells). It counts as cell-based, guinea pig. The note with it: for IC50: inhibition of carbachol-induced Ca2+ increase, guinea pig bladder smooth muscle cells, Fura2; for Ki: IC50 converted by Cheng-Prusoff equation based on EC50 of carbachol. As to the method: Below, the method is described in brief.
Smooth muscle cells were isolated from guinea pig bladders from which the […] had been removed, loaded with a calcium-sensitive fluorescent dye Fura2 and suspended in phenol red-free Hanks' buffer solution supplemented with 20 mM HEPES (pH 7.4) and 0.1% bovine serum albumin. An aliquot of cell suspension (490 μL) was continuously stirred, kept at 28° C. and monitored for the ratio of fluorescence (500 nm) at 340 nm excitation to that at 380 nm excitation. To each aliquot, 5 μL of test compound and carbachol solutions were serially added with a 2 minute interval, and the peak increase in the ratio over the level just before stimulation was used in data analysis.

In data set [4] the test system is carbachol-evoked bladder contraction. The experiment in a line: Inhibitory effects on carbachol-evoked bladder contraction in anesthetized mice. It counts as in vivo. The note with it: anesthetized female mice, i.v., carbachol 10 μg/kg, intravesical pressure. As to the method: The method for determination of inhibitory effects of test compounds on bladder contraction is described as follows.
Female mice, weighing 30 to 35 g, were anesthetized with a sub-lethal dose (75 mg/kg, i.v.) of sodium pentobarbital and placed supine on a heating pad to maintain the body temperature. A polyethylene catheter (PE10) was cannulated to the bladder via the urethra and secured by purse-string suture at the external urethral opening. Another catheter was inserted into the femoral vein for injections of drug solutions at a […]. The bladder catheter was connected to a pressure transducer through a three-way stopcock valve. The bladder was emptied by drainage of urine through the catheter, and then distended with about 100 μL of physiological saline, and the intravesical pressure was measured.
After intravesical pressure stabilization, the muscarinic agonist carbachol (10 μg/kg) was administered repeatedly with an interval of 15 minutes or longer. By this means, bladder contractions occurred in a reproducible manner over 2 hours without deterioration of physical conditions. After three responses to carbachol were obtained, a test compound injection was followed by carbachol administration 10 minutes later and this procedure was repeated with increasing doses of the test compound. In four or five mice per test compound, the percent inhibition of means of prior drug responses was obtained and the dose of test compound required for 50% inhibition (ID50) was estimated by the linear regression analysis. Mice showing rhythmic bladder constriction were not used for the data analysis.

T1 sequence (H0W1Z3 1-590): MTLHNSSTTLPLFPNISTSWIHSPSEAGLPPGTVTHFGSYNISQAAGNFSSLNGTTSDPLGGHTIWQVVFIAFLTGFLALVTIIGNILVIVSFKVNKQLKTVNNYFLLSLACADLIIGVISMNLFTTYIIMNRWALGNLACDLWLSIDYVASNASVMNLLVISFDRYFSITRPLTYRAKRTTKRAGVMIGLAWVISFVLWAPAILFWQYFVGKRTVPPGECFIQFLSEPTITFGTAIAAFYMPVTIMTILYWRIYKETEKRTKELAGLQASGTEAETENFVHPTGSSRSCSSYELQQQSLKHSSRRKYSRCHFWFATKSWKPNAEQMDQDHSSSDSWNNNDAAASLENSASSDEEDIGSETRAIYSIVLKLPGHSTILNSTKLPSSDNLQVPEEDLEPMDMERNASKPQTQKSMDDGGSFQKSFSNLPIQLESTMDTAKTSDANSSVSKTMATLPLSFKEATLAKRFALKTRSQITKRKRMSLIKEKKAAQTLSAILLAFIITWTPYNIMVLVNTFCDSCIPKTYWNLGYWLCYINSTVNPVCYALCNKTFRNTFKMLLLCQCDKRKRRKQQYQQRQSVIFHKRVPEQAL

For `O=C(O[C@H]1CN2CCC1CC2)N1CCc2ccccc2[C@H]1c1ccccc1` [Example 1, (−)-(3R)-quinuclidin-3-yl(1R)-1-phenyl-1,2,3,4-tetrahydroisoquinoline-2-carboxylate (−)-(2S,3S)-tartrate], the “Weight Change (%)” value in data set [1] was <1%. In addition, in data set [2], the “Change from Impurity Amt. before Storage (%), Condition 3” value (“Change … (%), Condition 3” below) was −0.3%. In data set [2], the “Change from Impurity Amt. before Storage (%), Condition 2” value (“Change … (%), Condition 2” for short) is recorded as −0.1%. Moreover, the “Change from Impurity Amt. before Storage (%), Condition 1” value (from here on “Change … (%), Condition 1”) in data set [2] came out at 0.2%. Further, in data set [2], the “Impurities before Storage (%)” value is listed as 1.5%. Also, the “Impurities (%)” value in data set [3] (Condition 1: 5° C., shading, tightly closed, 1 month) was 0.00%; in data set [3] (Condition 1: 5° C., shading, tightly closed, 2 months), 0.00%; in data set [3] (Condition 1: 5° C., shading, tightly closed, 2 weeks), 0.00%; in data set [3] (Condition 2: 40° C., relative humidity 75%, open, 1 month), 0.00%; in data set [3] (Condition 2: 40° C., relative humidity 75%, open, 2 months), 0.00%; in data set [3] (Condition 2: 40° C., relative humidity 75%, open, 2 weeks), 0.00%. Moreover, the “Impurities (%)” value in data set [3] (Condition 3: 60° C., shading, tightly closed, 1 month) is recorded as 0.00%; in data set [3] (Condition 3: 60° C., shading, tightly closed, 2 months) it was 0.00%; in data set [3] (Condition 3: 60° C., shading, tightly closed, 2 weeks), 0.00%; in data set [3] (Condition 4: 80° C., shading, tightly closed, 1 month) it was 0.00%; in data set [3] (Condition 4: 80° C., shading, tightly closed, 2 months), 0.00%; in data set [3] (Condition 4: 80° C., shading, tightly closed, 2 weeks) it was 0.00%. For the same compound, the “Impurities (%)” value is listed as 0.00% in data set [3] (Condition 5: 25° C., D65 (1000 lux), tightly closed, 1 month); 0.00% in data set [3] (Condition 5: 25° C., D65 (1000 lux), tightly closed, 2 months); 0.00% in data set [3] (Condition 5: 25° C., D65 (1000 lux), tightly closed, 2 weeks). Moreover, on muscarinic M3 receptors (IC50 (ng/mL)), the IC50 was 6620 pM. Further, the Ki at muscarinic M3 receptors (Ki (nM)) is 0.68 ± 0.21 nM. The “ID50 (dose required for 50% inhibition of bladder contraction)” value in data set [4] amounted to 0.079 mg/kg.
`O=C(O[C@H]1CN2CCC1CC2)N1CCc2ccccc2[C@H]1c1ccccc1.O=S(=O)(O)c1ccccc1` [Example 5, (−)-(3R)-quinuclidin-3-yl(1R)-1-phenyl-1,2,3,4-tetrahydroisoquinoline-2-carboxylate benzenesulfonate]: the “Weight Change (%)” value in data set [1] is given as <1%. Further, in data set [2] (benzenesulfonate), the “Change … (%), Condition 3” value was −0.1%; the “Change … (%), Condition 2” value was found to be 0.1%; the “Change … (%), Condition 1” value came out at 0.3%; the “Impurities before Storage (%)” value came to 1.6%. Further, the IC50 on muscarinic M3 receptors (IC50 (ng/mL)) is 3460 pM. Besides, the Ki at muscarinic M3 receptors (Ki (nM)) was 0.47 ± 0.12 nM. The “ID50 (dose required for 50% inhibition of bladder contraction)” value in data set [4] stood at 0.059 mg/kg.
Regarding `Br.O=C(O[C@H]1CN2CCC1CC2)N1CCc2ccccc2[C@H]1c1ccccc1` [Example 7, (−)-(3R)-quinuclidin-3-yl(1R)-1-phenyl-1,2,3,4-tetrahydroisoquinoline-2-carboxylate hydrobromide], in data set [1], the “Weight Change (%)” value is on record as <4%. Also, in data set [2], the “Change … (%), Condition 3” value is given as 0.3%; the “Change … (%), Condition 2” value is given as 0.2%; the “Change … (%), Condition 1” value is on record as −0.2%; the “Impurities before Storage (%)” value came to 0.5%. Also, at muscarinic M3 receptors (IC50 (ng/mL)), the IC50 was 4060 pM. For the same compound, the Ki at muscarinic M3 receptors (Ki (nM)) is 0.66 ± 0.28 nM. Also, the “ID50 (dose required for 50% inhibition of bladder contraction)” value in data set [4] is recorded as 0.050 mg/kg.
Take “(−)-(3R)-quinuclidin-3-yl(1R)-1-phenyl-1,2,3,4-tetrahydroisoquinoline-2-carboxylate (+)-camphor-10-sulfonate [Example 10]”: in data set [1], the “Weight Change (%)” value was <2%. Also, in data set [2], the “Change … (%), Condition 3” value was determined as 0.0%; the “Change … (%), Condition 2” value was 0.0%; the “Change … (%), Condition 1” value was determined as 0.0%; the “Impurities before Storage (%)” value is on record as 0.9%. On muscarinic M3 receptors (read-out: Ki), the Ki is 0.65 ± 0.12 nM. The half-maximal inhibitory concentration (IC50) on muscarinic M3 receptors was 2.6 ± 0.42 ng/mL.
For “(−)-(3R)-quinuclidin-3-yl(1R)-1-phenyl-1,2,3,4-tetrahydroisoquinoline-2-carboxylate (−)-L-phenylalaninate [Example 4]”, the “Weight Change (%)” value in data set [1] is <2%. Besides, in data set [2], the “Change … (%), Condition 3” value is reported as −0.3%; the “Change … (%), Condition 2” value is −0.3%; the “Change … (%), Condition 1” value came out at 50.8%; the “Impurities before Storage (%)” value is 1.9%. Further, the “Increase of impurities under heat” value in data set [2] (Condition 1 of Test Example 2 (stability test to heat)) is reported as “increase of impurities”. For the same compound, the Ki at muscarinic M3 receptors (read-out: Ki) was 0.66 ± 0.046 nM. Besides, the “IC50” value at muscarinic M3 receptors is recorded as 2.5 ± 0.044 ng/mL. The “ID50 (dose required for 50% inhibition of bladder contraction)” value in data set [4] turned out to be 0.090 mg/kg.
Consider “(−)-(3R)-quinuclidin-3-yl(1R)-1-phenyl-1,2,3,4-tetrahydroisoquinoline-2-carboxylate naphthalene-2-sulfonate [Example 8]”, for which the “Weight Change (%)” value in data set [1] was <4%. Moreover, in data set [2], the “Change … (%), Condition 3” value stood at 2.6%; the “Change … (%), Condition 2” value was determined as 0.2%; the “Change … (%), Condition 1” value is on record as 1.3%; the “Impurities before Storage (%)” value came to 2.0%. Also, the Ki at muscarinic M3 receptors (read-out: Ki) was 0.55 ± 0.12 nM. For the same compound, on muscarinic M3 receptors, the “IC50” value is recorded as 2.3 ± 0.87 ng/mL. Further, the “ID50 (dose required for 50% inhibition of bladder contraction)” value in data set [4] was found to be 0.057 mg/kg.
As for “(−)-(3R)-quinuclidin-3-yl(1R)-1-phenyl-1,2,3,4-tetrahydroisoquinoline-2-carboxylate sebacate [Example 9]”, the “Weight Change (%)” value in data set [1] was <1%. In addition, in data set [2], the “Change … (%), Condition 3” value was −0.8%; the “Change … (%), Condition 2” value is 0.2%; the “Change … (%), Condition 1” value is listed as −0.3%; the “Impurities before Storage (%)” value amounted to 3.7%. Moreover, the Ki at muscarinic M3 receptors (read-out: Ki) was 0.56 ± 0.048 nM. Moreover, the “IC50” value at muscarinic M3 receptors is 2.2 ± 0.33 ng/mL.
